From patent US20050197338A1, “Substituted pyrazole urea compounds for the treatment of inflammation” (priority 2003, published 2005)

molecular target: T1, Rat IKK-2 (Rattus norvegicus, UniProt Q9QY78); assay: Rat IKK-2 enzyme assay; assay type: biochemical; details: read-out: IC50 (μM) rIKK-2
T1 sequence (Q9QY78 1-757): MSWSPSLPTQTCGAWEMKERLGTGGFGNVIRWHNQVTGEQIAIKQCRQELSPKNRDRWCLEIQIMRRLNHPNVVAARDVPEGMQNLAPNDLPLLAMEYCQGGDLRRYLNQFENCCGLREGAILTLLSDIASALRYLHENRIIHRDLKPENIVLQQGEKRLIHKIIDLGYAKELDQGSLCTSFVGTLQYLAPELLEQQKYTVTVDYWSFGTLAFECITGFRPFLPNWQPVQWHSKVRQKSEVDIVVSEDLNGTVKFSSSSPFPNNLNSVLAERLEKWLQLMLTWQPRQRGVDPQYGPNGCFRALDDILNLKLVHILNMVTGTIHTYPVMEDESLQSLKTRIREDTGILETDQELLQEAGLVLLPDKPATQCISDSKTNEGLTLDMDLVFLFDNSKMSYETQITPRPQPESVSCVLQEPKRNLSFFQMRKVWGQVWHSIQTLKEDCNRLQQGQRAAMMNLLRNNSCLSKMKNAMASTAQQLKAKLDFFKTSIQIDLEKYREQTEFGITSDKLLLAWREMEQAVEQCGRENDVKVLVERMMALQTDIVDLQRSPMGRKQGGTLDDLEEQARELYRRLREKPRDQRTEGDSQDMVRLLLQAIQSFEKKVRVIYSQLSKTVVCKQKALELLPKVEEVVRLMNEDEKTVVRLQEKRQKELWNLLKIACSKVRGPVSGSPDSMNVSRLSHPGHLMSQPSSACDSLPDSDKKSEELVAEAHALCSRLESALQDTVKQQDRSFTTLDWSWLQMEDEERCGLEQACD
Protocol: Kinase activity was measured using a biotinylated […] peptide (Gly-Leu-Lys-Lys-Glu-Arg-Leu-Leu-Asp-Asp-Arg-His-Asp-Ser32-Gly-Leu-Asp-Ser36-Met-Lys-Asp-Glu-Glu) (American Peptide Co.). 20 μL of the standard reaction mixture contained 5 μM biotinylated IκBα peptide, 0.1 μCi/reaction [γ-^33P] ATP (Amersham) (about 1×10^5 cpm), 1 μM ATP (Sigma), 1 mM DTT (Sigma), 2 mM MgCl2 (Sigma), 2 mM MnCl2 (Sigma), 10 mM NaF (Sigma), 25 mM Hepes (Sigma) buffer, pH. 7.6 and 20 μL enzyme solution (50 nM/rxn or 200 ng/rxn) and 10 μL inhibitor in a final volume of 50 μL. After incubation at 25° C. for 60 min, 150 μL resin was added to each well to stop the reaction. Resin was mixed and allowed to settle for 1 h and 50 μL of supernatant was removed to a Micolite 2 flat bottom plate (Dynex). 150 μL of scintillation fluid (Microscint 40) (Packard) was added to each well. Incorporation of [γ-^33P] ATP was measured using a Top-Count NXT (Packard).

Question: `NC(=O)Nc1cn(-c2cccc(O)c2)nc1C(N)=O` [Example 300, 1-(3-hydroxy-phenyl)-4-ureido-1H-pyrazole-3-carboxylic acid amide] was tested. Which IC50 did it give?
Answer: 0.378 µM

Question: With `NC(=O)COc1ccccc1-c1ccc(-n2cc(NC(N)=O)c(C(N)=O)n2)cc1F` [Example 266, 4-[(aminocarbonyl)amino]-1-[2′-(2-amino-2-oxoethoxy)-2-fluoro-1,1′-biphenyl-4-yl]-1H-pyrazole-3-carboxamide] as the compound, how does the IC50 read?
Answer: 0.392 µM

Question: How did the IC50 turn out when `NC(=O)Nc1cn(-c2ccc(Sc3cccc(Br)c3)cc2)nc1C(N)=O` [Example 293, 1-(1-(4-(3-bromophenylthio)phenyl)-3-carbamoyl-1H-pyrazol-4-yl)urea] was run?
Answer: 4.82 µM

Question: How did the IC50 turn out when `CCOc1cc(-n2cc(NC(N)=O)c(C(N)=O)n2)ccc1-c1ccc(OCC(N)=O)cc1` [Example 275, 4-[(aminocarbonyl)amino]-1-[4′-(2-amino-2-oxoethoxy)-2-ethoxy-1,1′-biphenyl-4-yl]-1H-pyrazole-3-carboxamide] was run?
Answer: 10.8 µM

Question: With `Cc1cccc(-n2cc(NC(N)=O)c(C(N)=O)n2)c1` [Example 315, 1-m-tolyl-4-ureido-1H-pyrazole-3-carboxylic acid amide] as the compound, how does the IC50 read?
Answer: 0.632 µM

Question: Which IC50 does the source give for `Cc1cc(-n2cc(NC(N)=O)c(C(N)=O)n2)ccc1-c1ccc(O)c(F)c1` [Example 310, 1-(3′-fluoro-4′-hydroxy-2-methyl-biphenyl-4-yl)-4-ureido-1H-pyrazole-3-carboxylic acid amide] here?
Answer: 0.095 µM

Question: `Cc1ccc(-n2cc(NC(N)=O)c(C(N)=O)n2)cc1F` [Example 326, 4-[(aminocarbonyl)amino]-1-(3-fluoro-4-methylphenyl)-1H-pyrazole-3-carboxamide] was tested. Which IC50 did it give?
Answer: 0.365 µM

Question: How did the IC50 turn out when `CCCOc1ccc(-n2cc(NC(N)=O)c(C(N)=O)n2)cc1Cl` [Example 334, 4-[(aminocarbonyl)amino]-1-(3-chloro-4-propoxyphenyl)-1H-pyrazole-3-carboxamide] was run?
Answer: 2.42 µM

Question: How did the IC50 turn out when `NC(=O)Nc1cn(-c2ccc(-c3cc(F)ccc3O)c(F)c2)nc1C(N)=O` [Example 263, 4-[(aminocarbonyl)amino]-1-(2,5′-difluoro-2′-hydroxy-1,1′-biphenyl-4-yl)-1H-pyrazole-3-carboxamide] was run?
Answer: 0.482 µM

Question: `NC(=O)Nc1cn(-c2ccc(S(=O)(=O)c3ccccc3F)c(Cl)c2)nc1C(N)=O` [Example 271, 4-[(aminocarbonyl)amino]-1-{3-chloro-4-[(2-fluorophenyl)sulfonyl]phenyl}-1H-pyrazole-3-carboxamide] was tested. Which IC50 did it give?
Answer: 0.956 µM

Question: Which IC50 does the source give for `CCc1ccccc1-n1cc(NC(N)=O)c(C(N)=O)n1` [Example 314, 1-(2-ethyl-phenyl)-4-ureido-1H-pyrazole-3-carboxylic acid amide] here?
Answer: > 20 µM

Question: With `NC(=O)Nc1cn(-c2ccc([S+]([O-])c3ccncc3)cc2)nc1C(N)=O` (stereo not shown) [Example 294, 1-(3-carbamoyl-1-(4-(pyridin-4-ylsulfinyl)phenyl)-1H-pyrazol-4-yl)urea] as the compound, how does the IC50 read?
Answer: 0.237 µM

Question: For `Cc1cc(-n2cc(NC(N)=O)c(C(N)=O)n2)ccc1S(=O)(=O)c1cccc(F)c1` [Example 312, 1-[4-(3-fluoro-benzenesulfonyl)-3-methyl-phenyl]-4-ureido-1H-pyrazole-3-carboxylic acid amide], which IC50 is on record?
Answer: 0.975 µM

Question: With `NC(=O)Nc1cn(-c2ccc(Br)c(O)c2)nc1C(N)=O` [Example 276, 4-[(aminocarbonyl)amino]-1-(4-bromo-3-hydroxyphenyl)-1H-pyrazole-3-carboxamide] as the compound, how does the IC50 read?
Answer: 0.194 µM

Question: With `NC(=O)Nc1cn(-c2ccc(S(=O)(=O)c3ccncc3)cc2)nc1C(N)=O` [Example 295, 1-(3-carbamoyl-1-(4-(pyridin-4-ylsulfonyl)phenyl)-1H-pyrazol-4-yl)urea] as the compound, how does the IC50 read?
Answer: 0.0369 µM

Question: How did the IC50 turn out when `Cc1cc(O)ccc1-c1ccc(-n2cc(NC(N)=O)c(C(N)=O)n2)cc1C` [Example 309, 1-(4′-hydroxy-2,2′-dimethyl-biphenyl-4-yl)-4-ureido-1H-pyrazole-3-carboxylic acid amide] was run?
Answer: 0.086 µM

Question: Which IC50 does the source give for `Cc1cc(-n2cc(NC(N)=O)c(C(N)=O)n2)ccc1F` [Example 304, 4-[(aminocarbonyl)amino]-1-(4-fluoro-3-methylphenyl)-1H-pyrazole-3-carboxamide] here?
Answer: 0.547 µM

Question: `COc1ccc(F)cc1-c1ccc(-n2cc(NC(N)=O)c(C(N)=O)n2)cc1F` [Example 269, 4-[(aminocarbonyl)amino]-1-(2,5′-difluoro-2′-methoxy-1,1′-biphenyl-4-yl)-1H-pyrazole-3-carboxamide] was tested. Which IC50 did it give?
Answer: 0.781 µM

Question: Which IC50 does the source give for `Cc1ccccc1-n1cc(NC(N)=O)c(C(N)=O)n1` [Example 318, 1-o-tolyl-4-ureido-1H-pyrazole-3-carboxylic acid amide] here?
Answer: 8.52 µM

Question: With `NC(=O)Nc1cn(-c2ccc(-c3ccc(O)c(F)c3)c(F)c2)nc1C(N)=O` [Example 265, 4-[(aminocarbonyl)amino]-1-(2,3′-difluoro-4′-hydroxy-1,1′-biphenyl-4-yl)-1H-pyrazole-3-carboxamide] as the compound, how does the IC50 read?
Answer: 6.16 µM

Question: For `Cc1cc(-n2cc(NC(N)=O)c(C(N)=O)n2)ccc1OCc1ccccc1` [Example 307, 4-[(aminocarbonyl)amino]-1-[4-(benzyloxy)-3-methylphenyl]-1H-pyrazole-3-carboxamide], which IC50 is on record?
Answer: 6.44 µM

Question: How did the IC50 turn out when `COc1ccccc1-c1ccc(-n2cc(NC(N)=O)c(C(N)=O)n2)cc1F` [Example 267, 4-[(aminocarbonyl)amino]-1-(2-fluoro-2′-methoxy-1,1′-biphenyl-4-yl)-1H-pyrazole-3-carboxamide] was run?
Answer: 2.75 µM

Question: Which IC50 does the source give for `CCCc1ccc(-n2cc(NC(N)=O)c(C(N)=O)n2)cc1` [Example 305, 4-[(aminocarbonyl)amino]-1-(4-propylphenyl)-1H-pyrazole-3-carboxamide] here?
Answer: 0.098 µM

Question: How did the IC50 turn out when `Cc1cccc(Sc2ccc(-n3cc(NC(N)=O)c(C(N)=O)n3)cc2)c1` [Example 292, 1-(1-(4-(m-tolylthio)phenyl)-3-carbamoyl-1H-pyrazol-4-yl)urea] was run?
Answer: 4.16 µM

Question: How did the IC50 turn out when `COc1ccc(-n2cc(NC(N)=O)c(C(N)=O)n2)cc1OC` [Example 330, 4-[(aminocarbonyl)amino]-1-(3,4-dimethoxyphenyl)-1H-pyrazole-3-carboxamide] was run?
Answer: 1.78 µM

Question: Which IC50 does the source give for `NC(=O)Nc1cn(-c2ccc(OC(F)(F)F)cc2)nc1C(N)=O` [Example 328, 4-[(aminocarbonyl)amino]-1-[4-(trifluoromethoxy)phenyl]-1H-pyrazole-3-carboxamide] here?
Answer: 0.446 µM

Question: For `NC(=O)Nc1cn(-c2ccc(-c3ccc(O)cc3)c(F)c2)nc1C(N)=O` [Example 264, 4-[(aminocarbonyl)amino]-1-(2-fluoro-4′-hydroxy-1,1′-biphenyl-4-yl)-1H-pyrazole-3-carboxamide], which IC50 is on record?
Answer: 0.17 µM

Question: How did the IC50 turn out when `NC(=O)Nc1cn(-c2ccc(-c3ccc(O)cc3)c(Cl)c2)nc1C(N)=O` [Example 272, 4-[(aminocarbonyl)amino]-1-(2-chloro-4′-hydroxy-1,1′-biphenyl-4-yl)-1H-pyrazole-3-carboxamide] was run?
Answer: 0.167 µM

Question: Which IC50 does the source give for `Cc1cc(-n2cc(NC(N)=O)c(C(N)=O)n2)ccc1-c1ccc(O)cc1` [Example 308, 1-(4′-hydroxy-2-methyl-biphenyl-4-yl)-4-ureido-1H-pyrazole-3-carboxylic acid amide] here?
Answer: 0.099 µM

Question: With `CCCOc1ccc(-n2cc(NC(N)=O)c(C(N)=O)n2)cc1C` [Example 306, 4-[(aminocarbonyl)amino]-1-(3-methyl-4-propoxyphenyl)-1H-pyrazole-3-carboxamide] as the compound, how does the IC50 read?
Answer: 0.766 µM

Question: With `Cc1cc(-n2cc(NC(N)=O)c(C(N)=O)n2)ccc1Sc1cccc(F)c1` [Example 311, 1-[4-(3-fluoro-phenylsulfanyl)-3-methyl-phenyl]-4-ureido-1H-pyrazole-3-carboxylic acid amide] as the compound, how does the IC50 read?
Answer: 2.33 µM

Question: For `NC(=O)Nc1cn(-c2cccc(F)c2)nc1C(N)=O` [Example 316, 1-(3-fluoro-phenyl)-4-ureido-1H-pyrazole-3-carboxylic acid amide], which IC50 is on record?
Answer: 0.533 µM

Question: `CCCOc1ccc(-n2cc(NC(N)=O)c(C(N)=O)n2)cc1` [Example 332, 4-[(aminocarbonyl)amino]-1-(4-propoxyphenyl)-1H-pyrazole-3-carboxamide] was tested. Which IC50 did it give?
Answer: 1.08 µM

Question: For `NC(=O)COc1cc(F)ccc1-c1ccc(-n2cc(NC(N)=O)c(C(N)=O)n2)cc1F` [Example 268, 4-[(aminocarbonyl)amino]-1-[2′-(2-amino-2-oxoethoxy)-2,4′-difluoro-1,1′-biphenyl-4-yl]-1H-pyrazole-3-carboxamide], which IC50 is on record?
Answer: 0.175 µM
